Consider 6 compounds from ChEMBL document CHEMBL1201862, “PubChem BioAssay data set” (2004).

Common to all, as to experiment: NCI tumour cell line growth inhibition, 48 h
Assay [1] has as its system A549.
For assay [2], the system named is ACHN.
The subject of assay [3] is COLO 205.
The test system of assay [4] is HCT-116.
Assay [5] has as its system HOP-92.
The test system of assay [6] is HT-29.
The subject of assay [7] is IGROV-1.
Assay [8] relates to KM12.
In assay [9] the test system is LXFL 529.
The subject of assay [10] is MOLT-4.
The subject of assay [11] is Malme-3M.
Assay [12] deals with NCI-H226.
The test system of assay [13] is OVCAR-8.
Assay [14] deals with RPMI-8226.
Assay [15] relates to SF-539.
For assay [16], the system named is SNB-75.
Assay [17] has as its system SW-620.
Assay [18] deals with MDA-N.
Assay [19] deals with T47D.
The test system of assay [20] is BT-549.

SMILES strings stand for the structures.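 These data come from cells grown in 96-well plates and exposed to compound for 48 hours at five concentrations. GI50 = concentration required for 50% inhibition of growth.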 Activity calls are given as the source filed them. Cut-off read from the data, not from the text of the source: active = GI50 up to about 1.1 µM and inactive = higher. Bounds are passed on as bounds.

On to `O=C(NCCCCCCCCNC(=O)c1cnc2ccccc2n1)c1cnc2ccccc2n1`, for which the GI50 in [1], in [2], in assay [3], in [4], in [5] and in assay [6] was > 100 µM (inactive) throughout. The GI50 in assay [7] was > 100 µM (inactive); in assay [8], > 100 µM (inactive); in assay [9], > 100 µM (inactive); in [10] it was > 100 µM (inactive); in assay [11], > 100 µM (inactive); in assay [12], 32.1 µM (inactive). For the same compound, the GI50 in [13] is > 100 µM (inactive); in assay [14] it was > 100 µM (inactive); in assay [15], > 100 µM (inactive); in assay [16] it was 49.9 µM (inactive); in assay [17], > 100 µM (inactive).
`COC(=O)c1c(CC#N)cccc1CC#N`: the GI50 in assay [1], in [2], in [3], in [4], in assay [5] and in assay [6] was > 100 µM (inactive) throughout. Besides, the GI50 in assay [7], in assay [8], in assay [9], in assay [10], in assay [11] and in assay [12] was > 100 µM (inactive) throughout. The GI50 in assay [13], in assay [14], in assay [15], in assay [16] and in [17] was > 100 µM (inactive) throughout.
With `C=C(C)CCOC(c1ccccc1)(c1ccccc1)c1ccccc1`, the GI50 is 38.9 µM (inactive) in assay [1]; 25.7 µM (inactive) in [2]; 55.1 µM (inactive) in [3]; 18.7 µM (inactive) in assay [4]; 33.6 µM (inactive) in assay [5]; 22.3 µM (inactive) in assay [6]. In addition, the GI50 was > 100 µM (inactive) in assay [7]; 48.6 µM (inactive) in [8]; 45.8 µM (inactive) in assay [9]; 51.3 µM (inactive) in [10]; 28.4 µM (inactive) in assay [11]; 26.3 µM (inactive) in assay [12]. Moreover, the GI50 in assay [13] is 73.5 µM (inactive); in [14] it was 33.9 µM (inactive); in assay [15], 91 µM (inactive); in [16] it was 68.7 µM (inactive); in assay [17], 82.4 µM (inactive).
For `CC(=O)NC1C(OCc2ccccc2)OC(CO)C(O)C1OC(C)C(=O)NC(C)C(=O)N[C@@H](CCC(=O)OCCCNC1c2ccccc2Nc2cccc([N+](=O)[O-])c21)C(N)=O` (some centres undefined), the GI50 in assay [1], in assay [2], in assay [3], in assay [4], in assay [5] and in assay [6] was < 0.01 µM (active) each time. The GI50 in assay [7] is 0.0222 µM (active); in assay [8], < 0.01 µM (active); in assay [9], < 0.01 µM (active); in assay [18], 0.0152 µM (active); in assay [10], 0.0102 µM (active); in assay [11] it was < 0.01 µM (active). Further, the GI50 in [13] is < 0.01 µM (active); in assay [14] it was < 0.01 µM (active); in assay [15] it was < 0.01 µM (active); in [16], 0.0135 µM (active); in assay [17] it was < 0.01 µM (active); in assay [19], 0.174 µM (active).
As for `COC(=O)C1[C@@H](C(=O)OC)C(=O)O[C@H]1c1cc(OC)c(OC)c(OC)c1` (some centres undefined), the GI50 in assay [1], in assay [2], in [3], in assay [4], in assay [5] and in assay [6] was > 100 µM (inactive) throughout. Besides, the GI50 in assay [7], in [8], in assay [9], in [10], in assay [11] and in [12] was > 100 µM (inactive) each time. In addition, the GI50 in assay [13], in assay [14], in assay [15], in [16] and in assay [17] was > 100 µM (inactive) in each case.
Consider `CCCCCCCCCCCCC(O)C1CCC(C(O)CCCCC(O)CCCCCC2CC(CC(C)=O)C(=O)O2)O1` (centres undefined), for which the GI50 is 3.21 µM (inactive) in assay [1]; 7.85 µM (inactive) in assay [2]; 2.79 µM (inactive) in assay [20]; 3.19 µM (inactive) in assay [3]; 0.175 µM (active) in assay [4]; 0.986 µM (active) in [5]. The GI50 in assay [6] was 3.5 µM (inactive); in assay [7], 5.78 µM (inactive); in assay [8] it was 1.63 µM (inactive); in assay [9], 2.81 µM (inactive); in assay [18], 1.6 µM (inactive); in [11], 0.94 µM (active). Moreover, the GI50 is 1.82 µM (inactive) in [12]; 3.44 µM (inactive) in assay [13]; 3.9 µM (inactive) in assay [15]; 3.72 µM (inactive) in assay [16]; 5.87 µM (inactive) in [17]; 2.77 µM (inactive) in [19].
